Read-outs that look alike come from different tables or passages of the source.

6 compounds from patent publication US5716950A, “Diazacycloalkanealkylsulfonamide derivatives” (Nippon Shoji Kabushiki Kaisha, priority 1994, dated 1998) can be followed below.

Series [1] deals with passive cutaneous anaphylaxis (PCA). In words: Activity of suppressing passive cutaneous anaphylaxis (PCA). To be noted: Rattus norvegicus, po, 1 h, 10 mg/kg-po, 1 hour before antigen challenge; read-out: % suppression of rat PCA. In kind it is in vivo, Male Wistar rats. On the procedure:
Test compounds were examined on their antiallergic activities. […] After 48 hours, 1.0 ml of 0.5 % Evans Blue saline solution containing DNP.BSA (1 mg in protein) was injected through the tail vein to induce allergic reaction. After 30 minutes, the rats were sacrificed by bleeding and the skin of back where dye was leaked out was flayed and put it into 20 ml test tube with ground stopper. Thereto was added 1.0 ml of 1N KOH aqueous solution and then it was allowed to stand at 37° C. in incubator overnight for lysing. To this solution was added 8.3 ml of a mixture of acetone and 0.6N phosphoric acid (13:5) and the mixture was mixed well and then was filtered to remove the insoluble materials.
The test compounds were administered orally 1 hour before the antigen challenge. Suppression rate was expressed by percentage to the value in control where 0.5% aqueous methylcellulose solution was orally administered.

Series [2] has as its system extracted ileum (histamine contraction). Kind of series: Antihistaminic activity: suppression of histamine-induced contraction of extracted ileum. Also on record: species or system Female Hartley guinea pig. To be noted: histamine 3×10^-7 M; guinea pig ileum; 50% suppression of contraction; read-out: anti-His in extracted ileum EC50. On the procedure:
Female Hartley guinea pig (weighing 500 to 650 g) were sacrificed and the ileum (length of about 10 to 25 cm) was extracted from the ileocecum to prepare a specimen (length of 3 cm). […] After allowing to stand for 60 minutes to make the specimen stable, a histamine (3×10^-7 M) was applied to the specimen at single application. Contraction of the specimen was determined and recorded using isotonic transducer. After repeating application of a histamine to make the contraction constant, a diluted solution of the test compound was applied. Three minutes after the application, a histamine was then added and an activity of suppressing contraction was examined.

Series [3] deals with male ICR mice. In words: Toxicity Test (mouse acute toxicity, minimum lethal dose). In kind it is in vivo. The conditions noted are these: po, observed for 24 hours, head prints (10 mg/kg-po). The source says:
The test compounds were orally administered to male ICR mice (weighing to 30 g) after fasting overnight. […] The results were expressed by minimum lethal dose. Toxicity of any compounds of the present invention were weaker than that of ketotifen which was a reference compound.

For series [4], the system named is mouse biphasic allergic dermal reaction. In words: Mouse Biphasic Allergic Dermal Reaction. It counts as in vivo, Female Balb/c mice. The conditions noted are these: for inhibition in vivo at 0.1 mg/kg / inhibition in vivo at 1 mg/kg: Mus musculus, oral; for suppression of the late allergic reaction (in words): edema after 24 hours. The protocol:
Female Balb/c mice (weighing 18 to 25 g) were subjected to passive sensitization by intravenous administration of 1 ml of anti-DNP monoclonal IgE antibody showing 1:1024 of antibody titer. 24 hours after the sensitization, 25 μl of 0.15% dinitrofluorobenzene (DNFB) were applied to both sides of right and left auricles of mouse for inducing allergic reactions. Thickness of auricles were measured using Dial Thickness Gauge before the challenge with DNFB, and 1 and 24 hours after the challenge. And then, increase in thickness of auricles at 1 hour after the challenge (edema caused by immediate allergic reaction) and that at 24 hours after the challenge (edema caused by late allergic reaction) were calculated against the thickness of auricles before the challenge with DNFB, respectively.
Suppression rate was expressed by relative ratio (%) to the value in control in which a solvent was administered.
Test compounds, diphenhydramine which is a existing classical antihistamic drug, amlexanox which is an antiallergic drug and dexamethasone which is a steroidal drug were administered orally (partly intraperitoneally) once before antigen challenge.
The above test was performed by using a mouse biphasic allergic dermal reaction model which was a new model [see, Sakurai T, Inagaki, N. and Nagai, H Life Sci., 54, PL291-295 (1994)]. In this model, the immediate allergic reaction was induced by mediator release from mast cell at 1 hour after the challenge, and the late allergic reaction with inflammatory cells such as eosinophil (edema after 24 hours) was induced after 24 hours from the challenge.

[5] abbreviates: 1 h, read-out: immediate edema (1 hr) suppression (%).
[6] abbreviates: 24 h, read-out: late edema (24 hr) suppression (%).

Take `O=S(=O)(CCCCCCN1CCN(C(c2ccc(F)cc2)c2ccccn2)CC1)NC1CCCC1` (stereo not shown) [Example 61]: the inhibition in vivo at 10 mg/kg in series [1] came to 89.7%. In series [2], the EC50 is 310 nM. In addition, the “mouse acute toxicity (lethal dose)” value in series [3] was greater than 500 mg/kg. In series [4] (setting [5]), the inhibition in vivo at 0.1 mg/kg was found to be 5%. In series [4] (setting [6]), the inhibition in vivo at 0.1 mg/kg came to 37% and the inhibition in vivo at 1 mg/kg amounted to 44.4%. Also, the “suppression of the late allergic reaction (in words)” value (shortened to “suppression”) in series [4] is listed as “showed strong activity of suppressing the late allergic reaction”.

Regarding `O=S(=O)(CCCCCCN1CCN(C(c2ccc(F)cc2)c2ccccn2)CC1)NC1CC1` (stereo not shown) [Example 56], the inhibition in vivo at 10 mg/kg in series [1] turned out to be 94.5%. Besides, the half-maximal effective concentration (EC50) in series [2] was determined as 440 nM. In addition, the “mouse acute toxicity (lethal dose)” value in series [3] is reported as greater than 500 mg/kg. The inhibition in vivo at 1 mg/kg in series [4] (setting [5]) was 15.8%. In series [4] (setting [6]), the inhibition in vivo at 0.1 mg/kg worked out at 3.8% and the inhibition in vivo at 1 mg/kg came out at 34.6%. For the same compound, the “suppression” value in series [4] is “showed strong activity of suppressing the late allergic reaction”.

For the compound `O=S(=O)(CCCCCCN1CCN(C(c2ccccc2)c2ccc(Cl)cc2)CC1)NC1CC1` (stereo not shown) [Example 54], the inhibition in vivo at 10 mg/kg in series [1] was 89.2%. In series [2], the EC50 was 420 nM. Also, the “mouse acute toxicity (lethal dose)” value in series [3] is given as greater than 500 mg/kg. Besides, the inhibition in vivo at 0.1 mg/kg in series [4] (setting [5]) amounted to 19%; in series [4] (setting [6]) it was 37%. For the same compound, the inhibition in vivo at 1 mg/kg stood at 52.4% in series [4] (setting [5]) and 51.9% in series [4] (setting [6]). In addition, the “suppression” value in series [4] was “showed strong activity of suppressing the late allergic reaction”.

Regarding `O=S(=O)(CCCCCCN1CCN(C(c2ccccc2)c2cccc(Cl)c2)CC1)NC1CC1` (stereo not shown) [Example 120], the inhibition in vivo at 10 mg/kg in series [1] came to 93.4%. The EC50 in series [2] was found to be 700 nM. Further, the “mouse acute toxicity (lethal dose)” value in series [3] is reported as greater than 500 mg/kg. Further, in series [4] (setting [5]), the inhibition in vivo at 0.1 mg/kg worked out at 26.1% and the inhibition in vivo at 1 mg/kg is 56.5%. Further, in series [4] (setting [6]), the inhibition in vivo at 0.1 mg/kg stood at 7.1% and the inhibition in vivo at 1 mg/kg stood at 25%. Moreover, the “suppression” value in series [4] is reported as “showed strong activity of suppressing the late allergic reaction”.

For `O=S(=O)(CCCCCCN1CCN(C(c2ccccc2)c2ccc(Cl)cc2)CC1)NC1CCCCC1` (stereo not shown) [Example 143], the inhibition in vivo at 10 mg/kg in series [1] came out at 87.8%. Besides, the concentration giving a half-maximal response (EC50) in series [2] came to 2800 nM. Also, in series [3], the “mouse acute toxicity (lethal dose)” value is greater than 500 mg/kg. Moreover, the inhibition in vivo at 0.1 mg/kg in series [4] (setting [5]) was found to be 24%; in series [4] (setting [6]) it was 4%. The inhibition in vivo at 1 mg/kg worked out at 40% in series [4] (setting [5]) and 28% in series [4] (setting [6]). Also, in series [4], the “suppression” value is listed as “showed strong activity of suppressing the late allergic reaction”.

Take `O=S(=O)(CCCCCCN1CCN(C(c2ccccc2)c2ccc(Cl)cc2)CC1)NC1CCC1` (stereo not shown) [Example 128]: in series [1], the inhibition in vivo at 10 mg/kg stood at 86.1%. For the same compound, in series [2], the EC50 was found to be 320 nM. Further, in series [3], the “mouse acute toxicity (lethal dose)” value was greater than 500 mg/kg. Also, in series [4] (setting [5]), the inhibition in vivo at 0.1 mg/kg came out at 32% and the inhibition in vivo at 1 mg/kg turned out to be 28%. In addition, in series [4] (setting [6]), the inhibition in vivo at 0.1 mg/kg worked out at 36% and the inhibition in vivo at 1 mg/kg turned out to be 40%. Besides, the “suppression” value in series [4] was “showed strong activity of suppressing the late allergic reaction”.
